Results from patent US7910577B2 (priority 2004, dated 2011).

Assays:
[1] = particle size, Horiba LA 910 particle size analyzer; settings: unmilled drug crystals, before incorporation into nanoparticulate formulation
[2] = cited from earlier work

In the case of Cc1cc2c(s1)Nc1ccccc1N=C2N1CCN(C)CC1 [Olanzapine, 2-methyl-4-(4-methyl-1-piperazinyl) -10H-thieno[2,3-b][1,5]benzodiazepine], the mean particle size [1] is given as 137.08 microns and the solubility in water [2] is given as “practically insoluble in water”.
